One block for each molecule: values may come before it.
Assays:
ABCG25 [1] = biological target: T1, ABCG25 (Arabidopsis thaliana, UniProt Q84TH5); assay: stimulation of ATPase activity (colorimetric Pi release), allosteric sigmoidal fit; format: biochemical; parameters: full-length, N-terminal Flag tag, baculovirus / Sf9 cells, homodimer, purified in DDM or digitonin (with CHS extraction)
T1 sequence (Q84TH5 1-662): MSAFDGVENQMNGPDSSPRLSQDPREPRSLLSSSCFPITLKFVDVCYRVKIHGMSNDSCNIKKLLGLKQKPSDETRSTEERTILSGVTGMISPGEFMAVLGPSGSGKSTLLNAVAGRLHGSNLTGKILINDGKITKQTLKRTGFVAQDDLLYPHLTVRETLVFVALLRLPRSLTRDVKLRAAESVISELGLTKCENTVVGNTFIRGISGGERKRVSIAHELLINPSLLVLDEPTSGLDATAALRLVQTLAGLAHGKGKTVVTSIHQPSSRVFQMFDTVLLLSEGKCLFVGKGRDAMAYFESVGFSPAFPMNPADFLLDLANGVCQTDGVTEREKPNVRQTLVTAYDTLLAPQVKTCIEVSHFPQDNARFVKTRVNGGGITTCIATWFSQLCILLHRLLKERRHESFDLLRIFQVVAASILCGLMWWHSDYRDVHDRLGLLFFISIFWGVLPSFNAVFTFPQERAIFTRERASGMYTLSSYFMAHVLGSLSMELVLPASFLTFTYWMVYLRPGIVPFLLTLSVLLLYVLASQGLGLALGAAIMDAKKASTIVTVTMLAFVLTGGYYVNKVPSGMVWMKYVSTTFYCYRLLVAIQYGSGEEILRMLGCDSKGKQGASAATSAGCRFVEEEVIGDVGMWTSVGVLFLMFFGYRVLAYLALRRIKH

ABCG25 [2] = biological target: T1, ABCG25; assay: [3H]-ABA loading and efflux assays in Sf9 cells; format: cell-based; parameters: full-length, N-terminal Flag tag, baculovirus / Sf9 cells; conditions: 6.6 nM, pH 5.5; labelled compound
ABCG25 [3] = biological target: T1, ABCG25; assay: ATPase activity in liposomes reconstituted with or without cholesterol; format: biochemical; parameters: full-length, N-terminal Flag tag, baculovirus / Sf9 cells, homodimer, purified in DDM or digitonin (with CHS extraction); conditions: lipid:cholesterol 9:1 (w/w), proteoliposomes; direct action not proven (sterol identity in the cavity not settled)
[4] = substrate: Nc1ncnc2c1ncn2[C@@H]1O[C@H](COP(=O)(O)OP(=O)(O)OP(=O)(O)O)[C@@H](O)[C@H]1O; assay: ATPase activity (colorimetric Pi release), Michaelis-Menten fit; format: biochemical, Arabidopsis thaliana; conditions: 10 mM MgCl2, pH 7.4, 37 °C, detergent micelle (0.01% DDM), no ABA
[5] = biological target: the molecule itself; assay: cryo-EM structure; single particle analysis of purified ABCG25WT in 25 mM HEPES-NaOH pH 7.4, 150 mM NaCl, 0.03% digitonin; apo or with 2 mM ABA; C2 symmetry applied
[6] = biological target: the molecule itself; assay: cryo-EM structure; single particle analysis of purified E232Q ABCG25 in digitonin, incubated with 5 mM ATP and 10 mM MgCl2 on ice for 60 min

EC50 (ABCG25 [1]): 680 nM
Molecule: CC1=CC(=O)CC(C)(C)[C@@]1(O)/C=C/C(C)=C/C(=O)O [ABA, (S)-(+)-Abscisic acid]

Molecule: CC1=CC(=O)CC(C)(C)[C@@]1(O)/C=C/C(C)=C\C(=O)O [[3H]-ABA]
residual [3H]-ABA (ABCG25 [2]): residual [^3H]-ABA substantially decreased in cells expressing ABCG25

Molecule: CC(C)CCC[C@@H](C)[C@H]1CC[C@H]2[C@@H]3CC=C4C[C@@H](O)CC[C@]4(C)[C@H]3CC[C@]12C [cholesterol]
ATPase activity (ABCG25 [3]): cholesterol was added during liposomes reconstitution, the ATPase activity of ABCG25 was significantly reduced

B1: wild-type ABCG25 from Arabidopsis thaliana (natural protein, UniProt Q84TH5 1-662, looked up)
chain: MSAFDGVENQMNGPDSSPRLSQDPREPRSLLSSSCFPITLKFVDVCYRVKIHGMSNDSCNIKKLLGLKQKPSDETRSTEERTILSGVTGMISPGEFMAVLGPSGSGKSTLLNAVAGRLHGSNLTGKILINDGKITKQTLKRTGFVAQDDLLYPHLTVRETLVFVALLRLPRSLTRDVKLRAAESVISELGLTKCENTVVGNTFIRGISGGERKRVSIAHELLINPSLLVLDEPTSGLDATAALRLVQTLAGLAHGKGKTVVTSIHQPSSRVFQMFDTVLLLSEGKCLFVGKGRDAMAYFESVGFSPAFPMNPADFLLDLANGVCQTDGVTEREKPNVRQTLVTAYDTLLAPQVKTCIEVSHFPQDNARFVKTRVNGGGITTCIATWFSQLCILLHRLLKERRHESFDLLRIFQVVAASILCGLMWWHSDYRDVHDRLGLLFFISIFWGVLPSFNAVFTFPQERAIFTRERASGMYTLSSYFMAHVLGSLSMELVLPASFLTFTYWMVYLRPGIVPFLLTLSVLLLYVLASQGLGLALGAAIMDAKKASTIVTVTMLAFVLTGGYYVNKVPSGMVWMKYVSTTFYCYRLLVAIQYGSGEEILRMLGCDSKGKQGASAATSAGCRFVEEEVIGDVGMWTSVGVLFLMFFGYRVLAYLALRRIKH
notes: ABCG25, Arabidopsis thaliana, UniProt Q84TH5, full length; Homodimer of a half-transporter (one NBD and one TMD per chain); No cleavage of the Flag tag is described; the protein was eluted with Flag peptide; also called ABCG25WT; WT
Km [4]: 790 µM | stoichiometry N [5]: 2

B2: ABCG25 E232Q catalytic mutant (natural protein, Arabidopsis thaliana, UniProt Q84TH5 1-662, looked up)
chain: MSAFDGVENQMNGPDSSPRLSQDPREPRSLLSSSCFPITLKFVDVCYRVKIHGMSNDSCNIKKLLGLKQKPSDETRSTEERTILSGVTGMISPGEFMAVLGPSGSGKSTLLNAVAGRLHGSNLTGKILINDGKITKQTLKRTGFVAQDDLLYPHLTVRETLVFVALLRLPRSLTRDVKLRAAESVISELGLTKCENTVVGNTFIRGISGGERKRVSIAHELLINPSLLVLDQPTSGLDATAALRLVQTLAGLAHGKGKTVVTSIHQPSSRVFQMFDTVLLLSEGKCLFVGKGRDAMAYFESVGFSPAFPMNPADFLLDLANGVCQTDGVTEREKPNVRQTLVTAYDTLLAPQVKTCIEVSHFPQDNARFVKTRVNGGGITTCIATWFSQLCILLHRLLKERRHESFDLLRIFQVVAASILCGLMWWHSDYRDVHDRLGLLFFISIFWGVLPSFNAVFTFPQERAIFTRERASGMYTLSSYFMAHVLGSLSMELVLPASFLTFTYWMVYLRPGIVPFLLTLSVLLLYVLASQGLGLALGAAIMDAKKASTIVTVTMLAFVLTGGYYVNKVPSGMVWMKYVSTTFYCYRLLVAIQYGSGEEILRMLGCDSKGKQGASAATSAGCRFVEEEVIGDVGMWTSVGVLFLMFFGYRVLAYLALRRIKH
notes: ABCG25, Arabidopsis thaliana, UniProt Q84TH5, full length, with E232Q in the Walker B motif of the NBD; Made and purified in the same way as the wild type; incubated with ATP and Mg2+ before grid preparation; also called ABCG25EQ; E232Q ABCG25
stoichiometry N [6]: 2
